The results in this text go back to patent US12415771B2, “Compounds for the treatment of neuromuscular disorders” (NMD PHARMA A/S, priority 2019, dated 2025).

The test system of test [1] is isolated rat soleus muscles. As to the kind of experiment: Recovery of nerve-stimulated contractile force in isolated rat soleus nerve-muscle preparation exposed to tubocurarine. The conditions noted are these: 40 min, read-out: Point increase (%) of initial force that was restored. How it is done:
Recovery of force is quantified as the percentage of the force prior to tubocurarine that is recovered by the compound.
The current disclosure relates to compounds that inhibit CIC-1 ion channels and increase muscle excitability and thereby improve muscle function in clinical conditions where muscle activation is failing. Such conditions result in loss of contractile function of skeletal muscle, weakness and excessive fatigue. In this series of experiments the compounds were tested for their ability to restore contractile function of isolated rat muscle when the neuromuscular transmission had been compromised akin to neuromuscular disorders.
Experimentally, soleus muscles from 4-5 wk old rats were isolated with the motor nerve remaining attached. The nerve-muscle preparations were mounted in experimental setups that enabled electrical stimulation of the motor nerve. Stimulation of the motor nerve led to activation of the muscle fibres and ensuing force production that was recorded.
After mounting the nerve-muscle preparation in the experimental setup, the contractile function of the muscle was initially assessed under the control conditions (FIG. 2A). […] The experimental condition mimics the failing neuromuscular transmission in a range of neuromuscular disorders. After addition of tubocurarine the contractile force declined over the next 90 mins to 10-50% of the control force. 50 μM of the test compound was then added and the contractile force recovered despite the continued presence of tubocurarine. To quantify the ability of the compound to restore force the percentage of the initial force that was restored was determined after 40 mins of compound exposure (FIG. 2B) and the point increase is reported in Table 3.

For another test, the target named is T1, CIC-1 ion channel (Rattus norvegicus, UniProt P35524).
T1 construct: from tissue; host or cells: intact soleus muscle of 12-14 week old Wistar rats
T1 sequence (P35524 1-994): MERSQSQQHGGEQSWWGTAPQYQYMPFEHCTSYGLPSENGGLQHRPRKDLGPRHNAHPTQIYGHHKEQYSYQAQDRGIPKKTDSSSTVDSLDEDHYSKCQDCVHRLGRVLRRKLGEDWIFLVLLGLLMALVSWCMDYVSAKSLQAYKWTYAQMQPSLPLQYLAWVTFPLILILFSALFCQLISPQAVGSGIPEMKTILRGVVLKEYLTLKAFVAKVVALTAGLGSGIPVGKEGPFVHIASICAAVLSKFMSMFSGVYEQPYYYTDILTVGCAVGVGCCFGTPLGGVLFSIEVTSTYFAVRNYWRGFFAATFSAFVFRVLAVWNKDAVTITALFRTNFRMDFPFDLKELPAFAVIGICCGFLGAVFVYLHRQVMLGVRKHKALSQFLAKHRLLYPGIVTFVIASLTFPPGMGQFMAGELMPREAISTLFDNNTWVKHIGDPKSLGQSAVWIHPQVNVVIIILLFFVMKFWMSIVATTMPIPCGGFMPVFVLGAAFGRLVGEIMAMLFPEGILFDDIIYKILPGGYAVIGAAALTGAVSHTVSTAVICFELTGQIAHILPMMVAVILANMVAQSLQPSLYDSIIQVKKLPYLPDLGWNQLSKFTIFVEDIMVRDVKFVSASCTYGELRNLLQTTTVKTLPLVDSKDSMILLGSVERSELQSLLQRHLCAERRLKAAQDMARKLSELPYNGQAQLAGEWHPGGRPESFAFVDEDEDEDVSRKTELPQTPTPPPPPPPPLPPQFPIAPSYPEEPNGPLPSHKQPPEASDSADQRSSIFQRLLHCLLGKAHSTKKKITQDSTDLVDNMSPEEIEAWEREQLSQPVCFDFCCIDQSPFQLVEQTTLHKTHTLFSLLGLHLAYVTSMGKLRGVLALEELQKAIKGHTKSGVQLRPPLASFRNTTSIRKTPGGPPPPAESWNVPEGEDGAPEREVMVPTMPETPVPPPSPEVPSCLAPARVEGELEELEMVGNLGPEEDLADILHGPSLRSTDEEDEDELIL
As to the kind of experiment: Electrophysiological measurement (Gm, three micro-electrode technique) of compound inhibition of CIC-1 in rat soleus muscle fibres. Type of test: cell-based. The conditions noted are these: whole rat soleus muscle, Gm at four increasing concentrations, approx. 30° C., mean ± spread.

Test [2] relates to isolated rat soleus muscles. Briefly: Recovery of nerve-stimulated contractile force in isolated rat soleus nerve-muscle preparation exposed to tubocurarine. Conditions: FIG. 2: 50 μM compound added after 90 min incubation in tubocurarine, 3 muscles.
In another test the test system is female Lewis rats. Briefly: In situ isometric hindlimb force in anaesthetised rats under partial neuromuscular block by Cisatracurium. Type of test: in vivo. The conditions noted are these: Rattus norvegicus, iv, read-out: increase in tetanic force. The method, then: Isometric hindlimb force was measured in 12-week old female Lewis rats in the presence and absence of compound.
Rats were placed under anesthesia with isoflurane (2-4%), intubated and subsequently connected to a micro ventilator (Microvent 1, Hallowell EMC, US). Two stimulation electrodes were inserted through the skin to stimulate the sciatic nerve. A small incision was made proximal to the ankle, to expose the Achilles tendon, which was tied by cotton string, and connected to a force transducer (Fort250, World Precision Instruments) with adjustable position (Vernier control). The Achilles tendon was then cut distal to the attached cotton string. The rat was placed on a heated pad, and to prevent movement artefacts from contraction of the ankle dorsiflexors, the foot was fixated by tape on a footplate.
Muscle contractile properties were assessed by applying an electrical current (under supramaximal voltage conditions) to the nerve and recording the force generated by the muscle. The muscle was stretched until maximal force was obtained, when assessed by 2 Hz stimulation. Isometric force was measured every 30 seconds at 12 Hz (Twitch), 10 pulses, and at every 5 minutes at 80 Hz (Tetanic) for 1 second (80 pulses). This stimulation pattern was employed throughout the experiment, expect in few cases where 80 Hz stimulation was replaced by 12 Hz (10 pulses). […] When the level of neuromuscular inhibition was stable, the test article was injected i.v. at the chosen concentration. The effect of test article was assessed on its ability to increase force generated from the stimulation pattern applied. The effect was assessed in the ability to increase force per se (tetanic, 80 Hz, stimulation), and the ratio between individual twitch peaks (12 Hz stimulation). The effect was monitored for at least 1 hour after injection of test article. In addition, the time from injection of test article to maximal effect on force (both twitch and tetanic) was noted and the time for the effect to disappear (return to baseline), if possible. When appropriate the infusion of neuromuscular blocking agent was ceased, with the stimulation pattern continued, and the return of force to control levels was monitored. Animals were sacrificed by cervical dislocation while still fully sedated.

Setting [3] is: 50 μM test compound, after 40 mins exposure, 115 nM tubocurarine for 90 mins, rat soleus.

Read-outs that look alike come from different tables or passages of the source.

One may read the EC50 as the concentration giving half of the maximal effect. A lower EC50 goes with higher potency in that assay. For the compound `CCC(F)(F)c1cc(Br)ccc1O[C@@H](C)C(=O)O` [Compound A-3, (2S)-2-[4-bromo-2-(1,1-difluoropropyl)phenoxy]propanoic acid], in test [1] (setting [3]), the activation at 50 µM stood at 54%. The EC50 at CIC-1 ion channel stood at 3.5 ± 0.4 µM. Moreover, the “average force (AUC) relative to initial force” value in test [2] was “recovered”. The change in vivo at 17.5 mg/kg in the test on female Lewis rats (17.5 mg/kg i.v., 80 Hz stimulation, Cisatracurium block) was 64%.
For `CCC(F)(F)c1cc(Cl)ccc1O[C@@H](C)C(=O)O` [Compound A-5, (2S)-2-[4-chloro-2-(1,1-difluoropropyl)phenoxy]propanoic acid], the activation at 50 µM in test [1] (Rattus norvegicus) turned out to be 53%. In addition, the concentration giving a half-maximal response (EC50) on CIC-1 ion channel turned out to be 4 ± 2.1 µM. The change in vivo at 10.5 mg/kg with female Lewis rats was determined as 47%.
In the case of `CC(C)C(F)(F)c1cc(Br)ccc1O[C@@H](C)C(=O)O` [Compound A-7, (2S)-2-[4-bromo-2-(1,1-difluoro-2-methylpropyl)phenoxy]propanoic acid], the activation at 50 µM in test [1] (setting [3]) turned out to be 42%. At CIC-1 ion channel, this compound yielded a concentration giving a half-maximal response (EC50) of 3.5 ± 0.7 µM. Further, in the test on female Lewis rats (25.1 mg/kg i.v., 80 Hz stimulation, Cisatracurium block), the change in vivo at 25.1 mg/kg is 64%.
Take `CCC(F)(F)c1cc(Cl)ccc1O[C@@H](CF)C(=O)O` [Compound A-22, (2R)-2-[4-chloro-2-(1,1-difluoropropyl)phenoxy]-3-fluoropropanoic acid]: the activation at 50 µM in test [1] (Rattus norvegicus) amounted to 65%. Also, the response at CIC-1 ion channel was half-maximal at 3.3 ± 1.2 µM (EC50). In addition, the change in vivo at 10.4 mg/kg in the test on female Lewis rats is 57%.
Regarding `C#Cc1ccc(O[C@@H](C)C(=O)O)c(C(F)(F)CC)c1` [Compound A-23, (2S)-2-[2-(1,1-difluoropropyl)-4-ethynylphenoxy]propanoic acid], the activation at 50 µM in test [1] (setting [3]) stood at 37%. The EC50 on CIC-1 ion channel turned out to be 6.1 ± 1.1 µM. Besides, in the test with female Lewis rats (18.8 mg/kg i.v., 80 Hz stimulation, Cisatracurium block), the change in vivo at 18.8 mg/kg was found to be 40%.
On to `C[C@H](Oc1cc(F)c(Br)cc1C(C)(F)F)C(=O)O` [Compound A-29, (2S)-2-[4-bromo-2-(1,1-difluoroethyl)-5-fluorophenoxy]propanoic acid], for which the activation at 50 µM in test [1] (Rattus norvegicus) is 46%. The same compound displayed an EC50 on CIC-1 ion channel of 5.5 ± 1.7 µM. Moreover, the change in vivo at 22.9 mg/kg in the test on female Lewis rats turned out to be 76%.
For the compound `CCC(F)(F)c1cc(Br)c(F)cc1OCC(=O)O` [Compound A-31, 2-[4-bromo-2-(1,1-difluoropropyl)-5-fluorophenoxy]acetic acid], the activation at 50 µM in test [1] (setting [3]) amounted to 43%. On CIC-1 ion channel, this compound had a 50% effective concentration (EC50) of 5.5 ± 0.2 µM. Also, the change in vivo at 11.4 mg/kg with female Lewis rats (11.4 mg/kg i.v., 80 Hz stimulation, Cisatracurium block) was 14%.
In the case of `CCC(F)(F)c1cc(Cl)c(F)cc1O[C@@H](C)C(=O)O` [Compound A-32, (2S)-2-[4-chloro-2-(1,1-difluoropropyl)-5-fluorophenoxy]propanoic acid], the activation at 50 µM in test [1] (Rattus norvegicus) came to 41%. The EC50 at CIC-1 ion channel worked out at 2.3 ± 0.6 µM. Moreover, in the test on female Lewis rats, the change in vivo at 11.2 mg/kg worked out at 75%.
